From PubChem BioAssay (NCI)
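Exposure lasted 48 hours, with cells grown in 96-well plates and compounds tested at five concentrations. GI50 is the concentration that inhibits growth by half. Definition used: TGI = concentration required for complete inhibition of growth.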

Tests used:
Experiment in all cases: NCI anticancer screen, dose series, 48 h
UACC-62 melanoma = tested on: UACC-62 melanoma
SF-295 CNS = tested on: SF-295 CNS
SK-MEL-28 melanoma = tested on: SK-MEL-28 melanoma
MALME-3M melanoma = tested on: MALME-3M melanoma
T-47D breast = tested on: T-47D breast
SNB-75 CNS = tested on: SNB-75 CNS
HOP-62 NSCLC = tested on: HOP-62 NSCLC
DU-145 prostate = tested on: DU-145 prostate
SR leukemia = tested on: SR leukemia
SK-MEL-2 melanoma = tested on: SK-MEL-2 melanoma
HT29 colon = tested on: HT29 colon
K-562 leukemia = tested on: K-562 leukemia
HOP-92 NSCLC = tested on: HOP-92 NSCLC
SF-268 CNS = tested on: SF-268 CNS
HCC-2998 colon = tested on: HCC-2998 colon
NCI-H23 lung = tested on: NCI-H23 lung
HS 578T breast = tested on: HS 578T breast
MDA-MB-435 = tested on: MDA-MB-435
HCT-116 colon = tested on: HCT-116 colon
HL-60(TB) leukemia = tested on: HL-60(TB) leukemia
OVCAR-3 ovarian = tested on: OVCAR-3 ovarian
RPMI-8226 leukemia = tested on: RPMI-8226 leukemia
MOLT-4 leukemia = tested on: MOLT-4 leukemia
SN12C renal = tested on: SN12C renal
ACHN renal = tested on: ACHN renal
SF-539 CNS = tested on: SF-539 CNS
SK-MEL-5 melanoma = tested on: SK-MEL-5 melanoma
M14 melanoma = tested on: M14 melanoma
KM12 colon = tested on: KM12 colon

COc1cc2nccc(Oc3ccc(NC(=O)C4(C(=O)Nc5ccc(F)cc5)CC4)cc3)c2cc1Oc1ccc(N)cn1
GI50 (UACC-62 melanoma): 1.33 µM
TGI (UACC-62 melanoma): 7.03 µM
GI50 (SF-295 CNS): 0.254 µM
TGI (SF-295 CNS): 4.28 µM
GI50 (SK-MEL-28 melanoma): 2.56 µM
TGI (SK-MEL-28 melanoma): 32 µM
GI50 (MALME-3M melanoma): 2.09 µM
TGI (MALME-3M melanoma): 8.52 µM
GI50 (T-47D breast): 1.91 µM
TGI (T-47D breast): 9.91 µM
GI50 (SNB-75 CNS): 1.41 µM
TGI (SNB-75 CNS): 4.21 µM
GI50 (HOP-62 NSCLC): 2.83 µM
TGI (HOP-62 NSCLC): 84.3 µM
GI50 (DU-145 prostate): 4.5 µM
TGI (DU-145 prostate): > 100 µM
GI50 (SR leukemia): 3.25 µM
TGI (SR leukemia): > 100 µM
GI50 (SK-MEL-2 melanoma): 2.5 µM
TGI (SK-MEL-2 melanoma): 6.52 µM
GI50 (HT29 colon): 1.92 µM
TGI (HT29 colon): 7.6 µM
GI50 (K-562 leukemia): 0.9 µM
TGI (K-562 leukemia): > 100 µM
GI50 (HOP-92 NSCLC): 0.0492 µM
TGI (HOP-92 NSCLC): 3.03 µM
GI50 (SF-268 CNS): 3.11 µM
TGI (SF-268 CNS): > 100 µM
GI50 (HCC-2998 colon): 2.58 µM
TGI (HCC-2998 colon): 7.49 µM
GI50 (NCI-H23 lung): 2.57 µM
TGI (NCI-H23 lung): > 100 µM
GI50 (HS 578T breast): 1.65 µM
TGI (HS 578T breast): 7.39 µM
GI50 (MDA-MB-435): 1.83 µM
TGI (MDA-MB-435): 6.1 µM
GI50 (HCT-116 colon): 3.33 µM
TGI (HCT-116 colon): > 100 µM
GI50 (HL-60(TB) leukemia): 2.26 µM
TGI (HL-60(TB) leukemia): 5.23 µM
GI50 (OVCAR-3 ovarian): 3.68 µM
TGI (OVCAR-3 ovarian): > 100 µM
GI50 (RPMI-8226 leukemia): 3.99 µM
TGI (RPMI-8226 leukemia): 78.6 µM
GI50 (MOLT-4 leukemia): 3.12 µM
TGI (MOLT-4 leukemia): > 100 µM
GI50 (SN12C renal): 1.1 µM
TGI (SN12C renal): > 100 µM
GI50 (ACHN renal): 2.76 µM
TGI (ACHN renal): 10.2 µM
GI50 (SF-539 CNS): 0.854 µM
TGI (SF-539 CNS): 4.84 µM
GI50 (SK-MEL-5 melanoma): 2.03 µM
TGI (SK-MEL-5 melanoma): 4.43 µM
GI50 (M14 melanoma): 2.66 µM
TGI (M14 melanoma): 34.8 µM
GI50 (KM12 colon): 0.0442 µM
TGI (KM12 colon): 3.1 µM
